Structures can show the parent of a compound that is named as a salt.
Key:
[1] = target: T1, recombinant human PARP (PARP1) (Homo sapiens, UniProt P09874); assay: PARP enzyme assay, Method A (radioactivity or 'ELISA' enzyme assay with partially purified enzyme); format: biochemical; details: recombinant human PARP preparation, radioactive or ELISA enzyme assay
T1 construct: Full length human PARP (PARP1) is assembled from PCR fragments; His6 tag with TEV site, from the pFastBac-HTb vector (own knowledge of the vector); made in house; host or cells: insect cells, baculovirus (Bac-to-Bac, Gibco-BRL)
Outline: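 Partially purified recombinant full-length His-tagged human PARP1, baculovirus-expressed. Radioactive format: 100 μg/mL sonicated DNA, 100 μg/mL histones, 100 mM Tris pH 8.0, 10 mM MgCl2, 200 μM labeled NAD, 10 min 37 °C or 60 min RT, TCA-precipitated counts. ELISA format: 250 μM NAD plus biotin-NAD on histone plates, TMB A450.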

[2] = tested on: intracellular synthesis of poly(ADP-ribose) in HL60 cells; assay: Cell-based PARP assay (poly(ADP-ribose) immunodetection in fixed cells); details: Homo sapiens, HL-60, overnight incubation with compound, serum-free media
Procedure: The following example illustrates the efficacy of the compounds of this invention in inhibiting the effects of PARP in a cell based assay.
Reagents: Media RMPI 1640+Glutamax: Gibco 61870-044); TBST/milk, TBST (Sigma T93039) containing 5% skimmed milk (Nestle Carnation nonfat dry milk)
HL60 cells at […] in serum free media are seeded into the wells of a 96-well plate at 100 μL/well. The plate is pre-incubated for 3 hr under normal tissue culture conditions. One hundred μL of serum-free media containing compound at 2× the required concentration in 0.6% DMSO are added (or 0.6% DMSO only to controls and blanks). The plate is incubated overnight under normal tissue culture conditions, then centrifuged at 190×g for 5 min at 4° C. to pellet cells. The media is carefully removed by aspiration, and the cells are incubated in 100 μL/well ice-cold 0.56% KCl for 2 min on ice. The plate is centrifuged as above to pellet cells, the KCl removed by aspiration, and 100 μL/well ice-cold methanol added. After 4 min on ice, methanol is removed by aspiration and the cells air-dried for 10-15 min at rt. The cells are washed with PBS×3, then washed with TBST/milk (1 wash, 5 min incubation at rt). The cells are incubated with 100 μL/well 0.25% Triton X 100 in PBS for 10 min at RT, then washed x# with PBS and ×1 with TBST. The cells are blocked for 1 hr with TBST/milk (200 μL/well) and then washed ×1 with TBST. The fixed cells are incubated with primary antibody (Calbiochem cat no. 528815) at 1:2000 dilution in TBST/milk (100 μL/well, overnight at 4 deg C.). The cells are washed with TBST (2 rinses, 1×15 min, 2×5 min at RT). The cells are incubated with secondary antibody (anti-rabbit Ig-biotin conjugate, Amersham RPN1004) in TBST/milk at 1:3500 dilution, 100 μL/well for 1 hr at RT. The cells are washed with TBST (2 rinses, 1×15 min, 2×5 min at RT). The cells are then incubated with 100 μL/well of 4-MUP (Sigma, M3168) in the dark for 4 hrs. The fluorescence is read using a plate reader (excitation at 360 nm, emission at 440 nm). To calculate compound effects, the fluorescence of the blank (no cells) is subtracted from all data. Fluorescence obtained with a standard cell-permeable potent inhibitor at 30 μM is subtracted from all other groups as this appears to represent a true blank. Compound effects can then be determined: a PARP inhibitor blocks the intracellular synthesis of poly(ADP-ribose), and results in a decreased reactivity (reduced final fluorescence) with primary antibody in the fixed and permeabilized cells.
The results obtained from this study are expressed as EC50 (median effective concentration of the test compound that was effective in preventing the cell death—expressed in micromolar (μM) concentration) for each of the tested compounds and are summarized in Table 2.

T1 sequence (P09874 whole entry, the tested form may be a part): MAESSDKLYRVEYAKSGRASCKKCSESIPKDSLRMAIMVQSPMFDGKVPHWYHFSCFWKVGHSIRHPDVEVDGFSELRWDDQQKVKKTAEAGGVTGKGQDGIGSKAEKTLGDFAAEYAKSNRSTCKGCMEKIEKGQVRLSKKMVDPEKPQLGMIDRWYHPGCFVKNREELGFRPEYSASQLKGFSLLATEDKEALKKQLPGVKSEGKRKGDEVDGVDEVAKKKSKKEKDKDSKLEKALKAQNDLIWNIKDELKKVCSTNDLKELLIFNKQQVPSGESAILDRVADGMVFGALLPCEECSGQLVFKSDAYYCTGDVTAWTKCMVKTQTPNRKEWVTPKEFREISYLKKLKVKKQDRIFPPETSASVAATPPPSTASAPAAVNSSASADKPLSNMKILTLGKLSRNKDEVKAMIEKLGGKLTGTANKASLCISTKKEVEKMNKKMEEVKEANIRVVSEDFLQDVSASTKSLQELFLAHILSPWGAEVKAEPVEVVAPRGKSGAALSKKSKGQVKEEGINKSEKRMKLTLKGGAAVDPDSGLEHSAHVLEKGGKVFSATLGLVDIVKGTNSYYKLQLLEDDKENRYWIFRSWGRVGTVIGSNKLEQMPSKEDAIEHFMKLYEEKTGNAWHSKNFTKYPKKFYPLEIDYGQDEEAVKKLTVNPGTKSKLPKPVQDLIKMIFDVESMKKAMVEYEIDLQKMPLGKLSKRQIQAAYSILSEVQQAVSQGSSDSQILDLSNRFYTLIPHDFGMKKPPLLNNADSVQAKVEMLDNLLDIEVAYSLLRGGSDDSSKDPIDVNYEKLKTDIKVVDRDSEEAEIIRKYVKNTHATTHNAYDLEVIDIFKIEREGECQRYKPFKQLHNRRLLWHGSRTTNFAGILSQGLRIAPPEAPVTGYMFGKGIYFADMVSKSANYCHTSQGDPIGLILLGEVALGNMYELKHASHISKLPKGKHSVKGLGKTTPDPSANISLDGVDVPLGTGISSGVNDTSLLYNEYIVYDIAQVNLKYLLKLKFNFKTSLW

| SMILES | IC50 [1] | EC50 [2] |
| --- | --- | --- |
| CCc1cc(-c2ccc(S(=O)(=O)NCCc3cccnc3)s2)c(C)[nH]c1=O [Example 107, 5-(5-Ethyl-2-methyl-6-oxo-1,6-dihydropyridin-3-yl)thiophene-2-sulfonic acid (2-pyridin-3-yl-ethyl)amide hydrochloride] | 0.08 µM | 30 nM |
| CCc1cc(-c2ccc(S(=O)(=O)NCCc3ccncc3)s2)c(C)[nH]c1=O [Example 109, 5-(5-Ethyl-2-methyl-6-oxo-1,6-dihydropyridin-3-yl)thiophene-2-sulfonic acid (2-pyridin-4-yl-ethyl)amide hydrochloride] | 0.1 µM | 240 nM |
| CCc1cc(-c2ccc(S(=O)(=O)NCc3ccncc3)s2)c(C)[nH]c1=O [Example 110, 5-(5-ethyl-2-methyl-6-oxo-1,6-dihydropyridin-3-yl)thiophene-2-sulfonic acid (pyridin-4-ylmethyl)amide hydrochloride] | 0.08 µM | 20 nM |
| CCc1cc(-c2ccc(S(=O)(=O)NCc3nc4ccccc4[nH]3)s2)c(C)[nH]c1=O [Example 118, 5-(5-Ethyl-2-methyl-6-oxo-1,6-dihydro-pyridin-3-yl)thiophene-2-sulfonic acid (1H-benzimidazol-2-ylmethyl)amide hydrochloride] | 0.15 µM | 30000 nM |
| CCc1cc(-c2ccc(S(=O)(=O)NCCNC(C)=O)s2)c(C)[nH]c1=O [Example 119, N-{2-[5-(5-Ethyl-2-methyl-6-oxo-1,6-dihydropyridin-3-yl)thiophene-2-sulfonylamino]ethyl}acetamide] | 0.38 µM | 800 nM |
| CCc1cc(-c2ccc(CNC(C)c3ccccc3)s2)c(C)[nH]c1=O (stereo not shown) [Example 135, 3-Ethyl-6-methyl-5-{5-[(1-phenyl-ethylamino)-methyl]thiophen-2-yl}-1H-pyridin-2-one hydrochloride] | 0.35 µM | 12200 nM |

Other lines, results leading:

| IC50 [1] | EC50 [2] | SMILES |
| --- | --- | --- |
| 0.43 µM | 30800 nM | CCc1cc(-c2ccc(CN3CCCC(O)C3)s2)c(C)[nH]c1=O (stereo not shown) [Example 126, 3-Ethyl-5-[5-(3-hydroxypiperidin-1-ylmethyl)thiophen-2-yl]-6-methyl-1H-pyridin-2-one hydrochloride] |
| 0.46 µM | 14700 nM | CCc1cc(-c2ccc(CNC(C)CCc3ccccc3)s2)c(C)[nH]c1=O (stereo not shown) [Example 136, 3-Ethyl-6-methyl-5-{5-[(1-methyl-3-phenyl-propylamino)-methyl]thiophen-2-yl}-1H-pyridin-2-one hydrochloride] |
| 0.39 µM | 1430 nM | CCc1cc(-c2ccc(CNCC3CCCCC3)s2)c(C)[nH]c1=O [Example 143, 5-(5-Cyclohexylmethylaminomethylthiophen-2-yl)-3-ethyl-6-methyl-1H-pyridin-2-one hydrochloride] |
| 0.24 µM | 970 nM | CCc1cc(-c2ccc(CNCCOc3ccccc3)s2)c(C)[nH]c1=O [Example 146, 3-Ethyl-6-methyl-5-{5-[(2-phenoxyethylamino)-methyl]thiophen-2-yl}-1H-pyridin-2-one hydrochloride] |
| 0.41 µM | 520 nM | CCc1cc(-c2ccc(CN3CCCCC3)s2)c(C)[nH]c1=O [Example 148, 3-ethyl-6-methyl-5-(5-piperidin-1-ylmethy-thiophen-2-yl)-1H-pyridin-2-one hydrochloride] |

Source: patent publication US8173682B2, “Substituted pyridones as inhibitors of poly(ADP-ribose) polymerase (PARP)” (Aventis Pharmaceuticals Inc., priority 2004, dated 2012)
